In US8158380B2, “Imaging agents for protein misfolding” (New York University, priority 2007, dated 2012):

Target: amyloid plaques (Homo sapiens, UniProt P05067)
Experiment: In vivo staining after intraperitoneal injection in PS/APP Tg mice, sections viewed under fluorescent microscope
Set-up: from tissue; host or cells: brain of PS/APP (APP/PS1) transgenic mice, as sections or in vivo
Method: Methods used: Five groups each of 6-month-old PS/APP Tg mice were tested (which have abundant amyloid plaques) with the compounds of the present invention. The mice received an intraperitoneal injection of compounds 23, 8 or 8F (30 μg/gram). They were sacrificed 24 hours later by ip injection of sodium pentobarbital (150 mg/kg). All animals were transcardially perfused with 20 ml of 0.1 M phosphate buffered saline (pH 7.4) with the addition of heparin followed by 80 ml of 4% formaldehyde in 0.1 M phosphate buffer. The brain was removed from the skull, cryoprotected using increasing concentrations of sucrose, and cut into serial 40-μm-thick coronal section on a freezing microtome (Leica SM2400, Nussloch, Germany). Anti-amyloid β immunohistochemistry was performed on free-floating sections, using our previously published protocols^20-23. In brief, endogenous peroxidase activity was quenched in a bath with 0.3% H2O2 for 30 min. Unspecific staining was blocked by incubation in the blocking solution provided as a part of “Mouse on mouse” kit (Vector Elite staining kit, Vector Laboratories, Burlingame, Calif.). This procedure allows for detection of antigens in murine tissue using mouse mAb avoiding substantial background. Concentration of all mAbs was 0.25 mg/ml with the total concentration of protein in a stock solution of 1 mg/ml as assessed by a Coomasie colorimetric assay. 1:2000 dilution of the stock solution was used. Primary antibodies were applied for 30 minutes followed by thorough washing and the anti-mouse IgG biotinylated secondary antibody according to the kit manufacturer instruction. For fluorescent microscopy sections were incubated with streptavidin conjugated with Cy3 (1:400; Sigma, St. Louis Mo.) whereas for light microscopy they were incubated with avidin-horseradish peroxidase complex and developed using 3,3′-diaminobenzidine kit with nickel ammonium sulfate (Vector Laboratories, Burlingame, Calif.). Following immunostaining, sections were carried on slides, air-dried, and cover-slipped. […]

[1] = AD mice, in vivo injection, sacrificed 24 hours after injection

Chain of amyloid plaques (P05067 672-713 limits assumed): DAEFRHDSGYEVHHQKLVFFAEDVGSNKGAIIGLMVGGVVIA

- ability to cross the blood brain barrier [1]: able to cross the blood brain barrier
- labeling of amyloid plaques in vivo [1]: label amyloid plaques in vivo
- effectiveness in blood-brain barrier permeability and labeling amyloid plaques in tissue sections and in vivo (AD model transgenic mice): most effective
SMILES: COc1ccc2nc(/C=C/c3ccc(-c4ccc(F)cc4)cc3)ccc2c1 [compound 8F]
